Experimental data: patent US20180289678A1, “PHARMACEUTICAL COMPOSITION, PHARMACEUTICAL DOSAGE FORM, PROCESS FOR THEIR PREPARATION, METHODS FOR TREATING AND USES THEREOF” (Boehringer Ingelheim International GmbH, priority 2009, published 2018)
Like-named read-outs stand apart in the source and are kept apart here.

Assay: Study .4: 4-week treatment of diabetic patients, once daily, pharmacokinetic parameters
Assay type: in vivo, human
Settings: for AUCτ,ss,norm Max / AUCτ,ss,norm Median / AUCτ,ss,norm Min / AUCτ,ss,norm gMean: Study .4, steady state, dose-normalized
Protocol: 5. Pharmacokinetic Parameters
The pharmacokinetic parameters of pharmaceutical compositions and pharmaceutical dosage forms are assessed in healthy volunteer and patient populations. In the studies shown below, the participants fasted on the day of sampling, unless as otherwise stated (see for example study .3). The active substance in the studies below is the compound (I.9), preferably in the crystalline form (I.9X), and the dose of active ingredient is indicated in mg.
For the quantification of plasma concentrations of the active ingredient, 2.7 mL of blood was collected and transferred into an EDTA (ethylendiaminetetraacetic acid)-anticoagulant blood drawing tube. The EDTA-anticoagulated blood samples were centrifuged immediately after collection. Centrifugation lasted for about 10 minutes (at about 2,000×gf to 4,000×gf) at 4-8° C. or within 30 minutes while stored on ice. Concentrations of active substance in EDTA human plasma samples were quantitated using a HPLC/MS/MS method. The assay method comprised a solid phase supported liquid-liquid extraction of human plasma coupled with HPLC/MS/MS determination of the extracted samples. The HPLC/MS/MS assay was validated for the range of 1.11 to 1110 nM in human plasma.
Study .4: 4-week treatment of a diabetic patient population of N=78, once daily administration for 4 weeks. Patients were administered tablets as described in Example 10 (section Examples of formulations).
AUC0-inf:area under the concentration-time curve of the analyte in plasma over the time interval from 0 extrapolated to infinity.
Cmax: maximum concentration of the analyte in plasma.
Tmax: time from dosing to maximum concentration.
AUCT,SS:area under the concentration-time curve of the analyte in plasma over the time interval from 0 to 24 h at steady-state.
Cmax,ss:maximum concentration of the analyte in plasma at steady state over a uniform dosing interval.
tmax,ss:time from dosing to maximum concentration at steady state.

[1] = 10 mg once daily, steady state, Study .4, fasted
[2] = 10 mg single dose, Study .4, fasted
[3] = 25 mg once daily, steady state, Study .4, fasted
[4] = 25 mg single dose, Study .4, fasted

Structure (SMILES): OC[C@H]1O[C@@H](c2ccc(Cl)c(Cc3ccc(O[C@H]4CCOC4)cc3)c2)[C@H](O)[C@@H](O)[C@@H]1O [Compound (I.9), 1-chloro-4-(β-D-glucopyranos-1-yl)-2-[4-((S)-tetrahydrofuran-3-yloxy)-benzyl]-benzene]
- AUCτ,ss Max [1]: 2.6 µM·h
- AUCτ,ss Min [1]: 1350 nmol·h/L
- tmax,ss Max [1]: 4.00 h
- tmax,ss Min [1]: 59 min
- Cmax (10 mg once daily, steady state, Study .4, fasted, read-out: Cmax,ss Max): 367 nM
- AUC0-inf Max [2]: 2.41 µM·h
- AUC0-inf Min [2]: 1390 nmol·h/L
- AUC0-inf,norm Max [2]: 241 nmol·h/L/mg
- AUC0-inf,norm Median [2]: 173 nmol·h/L/mg
- AUC0-inf,norm Min [2]: 139 nmol·h/L/mg
- AUC0-inf,norm gMean [2]: 172 nmol·h/L/mg
- tmax Max [2]: 2.50 h
- tmax Min [2]: 60 min
- Cmax (10 mg single dose, Study .4, fasted, read-out: Cmax Max): 796 nM
- Cmax (10 mg single dose, Study .4, fasted, read-out: Cmax Min): 205 nM
- AUCτ,ss Max [3]: 7.64 µM·h
- AUCτ,ss Min [3]: 2790 nmol·h/L
- tmax,ss Max [3]: 3.02 h
- tmax,ss Min [3]: 45 min
- AUC0-inf Max [4]: 7.17 µM·h
- AUC0-inf Min [4]: 2840 nmol·h/L
- AUC0-inf,norm Max [4]: 287 nmol·h/L/mg
- AUC0-inf,norm Median [4]: 171 nmol·h/L/mg
- AUC0-inf,norm Min [4]: 114 nmol·h/L/mg
- AUC0-inf,norm gMean [4]: 170 nmol·h/L/mg
- tmax Min [4]: 45 min
- Cmax (25 mg single dose, Study .4, fasted, read-out: Cmax Max): 1030 nM
- Cmax (25 mg single dose, Study .4, fasted, read-out: Cmax Min): 496 nM
- AUCτ,ss,norm Max (dose 10 mg, plasma): 260 nmol·h/L/mg
- AUCτ,ss,norm Median (dose 10 mg, plasma): 184 nmol·h/L/mg
- AUCτ,ss,norm Min (dose 10 mg, plasma): 135 nmol·h/L/mg
- AUCτ,ss,norm gMean (dose 10 mg, plasma): 185 nmol·h/L/mg
- AUCτ,ss,norm Max (dose 25 mg, plasma): 306 nmol·h/L/mg
- AUCτ,ss,norm Median (dose 25 mg, plasma): 179 nmol·h/L/mg
- AUCτ,ss,norm Min (dose 25 mg, plasma): 112 nmol·h/L/mg
- AUCτ,ss,norm gMean (dose 25 mg, plasma): 186 nmol·h/L/mg
- AUC (human, plasma, oral, 10 mg, 10 mg once daily, steady state, Study .4, fasted, read-out: AUCτ,ss Mean): 1.87 µM·h
- AUC (human, plasma, oral, 10 mg, 10 mg once daily, steady state, Study .4, fasted, read-out: AUCτ,ss Median): 1.84 µM·h
- AUC (human, plasma, oral, 10 mg, 10 mg once daily, steady state, Study .4, fasted, read-out: AUCτ,ss gMean): 1.85 µM·h
- Cmax (human, plasma, oral, 10 mg, 10 mg once daily, steady state, Study .4, fasted, read-out: Cmax,ss Mean): 259 nM
- Cmax (human, plasma, oral, 10 mg, 10 mg once daily, steady state, Study .4, fasted, read-out: Cmax,ss Median): 251 nM
- Cmax (human, plasma, oral, 10 mg, 10 mg once daily, steady state, Study .4, fasted, read-out: Cmax,ss gMean): 252 nM
- Tmax (human, plasma, oral, 10 mg, 10 mg once daily, steady state, Study .4, fasted, read-out: tmax,ss Mean): 1.72 h
- Tmax (human, plasma, oral, 10 mg, 10 mg once daily, steady state, Study .4, fasted, read-out: tmax,ss Median): 1.5 h
- Tmax (human, plasma, oral, 10 mg, 10 mg once daily, steady state, Study .4, fasted, read-out: tmax,ss g Mean): 1.61 h
- AUC(0-inf) (human, plasma, oral, 10 mg, 10 mg single dose, Study .4, fasted, read-out: AUC0-inf Mean): 1.74 µM·h
- AUC(0-inf) (human, plasma, oral, 10 mg, 10 mg single dose, Study .4, fasted, read-out: AUC0-inf Median): 1.73 µM·h
- AUC(0-inf) (human, plasma, oral, 10 mg, 10 mg single dose, Study .4, fasted, read-out: AUC0-inf gMean): 1.72 µM·h
- Cmax (human, plasma, oral, 10 mg, 10 mg single dose, Study .4, fasted, read-out: Cmax Mean): 309 nM
- Cmax (human, plasma, oral, 10 mg, 10 mg single dose, Study .4, fasted, read-out: Cmax Median): 271 nM
- Cmax (human, plasma, oral, 10 mg, 10 mg single dose, Study .4, fasted, read-out: Cmax gMean): 291 nM
- Tmax (human, plasma, oral, 10 mg, 10 mg single dose, Study .4, fasted, read-out: tmax Mean): 1.5 h
- Tmax (human, plasma, oral, 10 mg, 10 mg single dose, Study .4, fasted, read-out: tmax Median): 1.5 h
- Tmax (human, plasma, oral, 10 mg, 10 mg single dose, Study .4, fasted, read-out: tmax gMean): 1.44 h
- AUC (human, plasma, oral, 25 mg, 25 mg once daily, steady state, Study .4, fasted, read-out: AUCτ,ss Mean): 4.74 µM·h
- AUC (human, plasma, oral, 25 mg, 25 mg once daily, steady state, Study .4, fasted, read-out: AUCτ,ss Median): 4.48 µM·h
- AUC (human, plasma, oral, 25 mg, 25 mg once daily, steady state, Study .4, fasted, read-out: AUCτ,ss gMean): 4.64 µM·h
- Cmax (human, plasma, oral, 25 mg, 25 mg once daily, steady state, Study .4, fasted, read-out: Cmax,ss Mean): 687 nM
- Cmax (human, plasma, oral, 25 mg, 25 mg once daily, steady state, Study .4, fasted, read-out: Cmax,ss Median): 671 nM
- Cmax (human, plasma, oral, 25 mg, 25 mg once daily, steady state, Study .4, fasted, read-out: Cmax,ss gMean): 676 nM
- Tmax (human, plasma, oral, 25 mg, 25 mg once daily, steady state, Study .4, fasted, read-out: tmax,ss Mean): 1.55 h
- Tmax (human, plasma, oral, 25 mg, 25 mg once daily, steady state, Study .4, fasted, read-out: tmax,ss Median): 1.5 h
- Tmax (human, plasma, oral, 25 mg, 25 mg once daily, steady state, Study .4, fasted, read-out: tmax,ss g Mean): 1.4 h
- AUC(0-inf) (human, plasma, oral, 25 mg, 25 mg single dose, Study .4, fasted, read-out: AUC0-inf Mean): 4.34 µM·h
- AUC(0-inf) (human, plasma, oral, 25 mg, 25 mg single dose, Study .4, fasted, read-out: AUC0-inf Median): 4.27 µM·h
- AUC(0-inf) (human, plasma, oral, 25 mg, 25 mg single dose, Study .4, fasted, read-out: AUC0-inf gMean): 4.24 µM·h
- Cmax (human, plasma, oral, 25 mg, 25 mg single dose, Study .4, fasted, read-out: Cmax Mean): 722 nM
- Cmax (human, plasma, oral, 25 mg, 25 mg single dose, Study .4, fasted, read-out: Cmax Median): 697 nM
- Cmax (human, plasma, oral, 25 mg, 25 mg single dose, Study .4, fasted, read-out: Cmax gMean): 709 nM
- Tmax (human, plasma, oral, 25 mg, 25 mg single dose, Study .4, fasted, read-out: tmax Mean): 1.39 h
- Tmax (human, plasma, oral, 25 mg, 25 mg single dose, Study .4, fasted, read-out: tmax Median): 1.5 h
- Tmax (human, plasma, oral, 25 mg, 25 mg single dose, Study .4, fasted, read-out: tmax gMean): 1.33 h
